{
  "source": "patent US20070197485A1",
  "about": "“Therapy and Use of Compounds in Therapy” (MAX-DELBRUECK-CENTRUM FUR MOLEKULARE MEDIZIN, priority 1999, published 2007)",
  "key": {"[1]": {"system": "whole blood TNF production", "assay": "Whole blood TNF production after therapeutic application of UDCA", "type": "in vivo, human", "conditions": "patient 4; after 2 days of UDCA treatment, 3 times 250 mg daily", "procedure": "(§1) We have tested the ability of the therapeutic application of ursodeoxycholic acid (UDCA, FALK Pharma GmbH) to lower plasma levels of TNF and IL6 and to lower spontaneous and LPS-stimulated whole blood cytokine production in patients with cachexia.\n(§2) We studied in 2 patients with cachexia due to liver cirrhosis plasma cytokine levels after treatment with 3 times 250 mg daily UDCA (FALK Pharma GmbH). The patients had weight loss >7.5% compared to their previous normal weight. The patients were studied at baseline prior to the treatment on 2 subsequent days (day ”−1” and day “0”), and then they were restudied on day 1 (“1”), day 2 (“2”), and day 5 (“5”), see FIGS. 9 and 12.\n(§3) Methods: Heparinized whole blood was diluted 1:10 with medium ±LPS (50 pg/ml), ±BPI (1 ug/ml), and ±UDCA (1 ug/ml-1 mg/ml) according to the manufacturer's recommendation (Milenia whole blood assay; DPC Biermann, Bad Nauheim, Germany) and incubated for 4 hours at 37° C. In the supernatant and in plasma, we assessed concentrations of TNF and IL-6 using the semiautomated Immulite system (DPC-Biermann, Bad Nauheim, Germany)."}, "[2]": {"system": "TNF production in whole blood of patients with cachexia", "assay": "Milenia whole blood assay, TNF production (in vitro addition of UDCA / BPi)", "type": "cell-based, human", "procedure": "(§4) We have tested the ability of ursodeoxycholic acid (UDCA, FALK Pharma GmbH) and BPi to inhibit LPS-mediated TNF production in whole blood of patients with cachexia. We studied 4 patients with cachexia due to liver cirrhosis. The patients had all weight loss >7.5% compared to their previous normal weight. […] All patients were studied twice on 2 subsequent days (day “−1” and day “0”), see FIG. 9 to 12.\nMethods: Heparinized whole blood was diluted 1:10 with medium ±LPS (50 μg/ml), ±BPi (1 μg/ml), and ±UDCA (1 μg/ml-1 mg/ml) according to the manufacturer's recommendation (Milenia whole blood assay; DPC Biermann, Bad Nauheim, Germany) and incubated for 4 hours at 37° C. In the supernatant, we assessed concentrations of TNF and IL-6 using the semiautomated Immulite system (DPC-Biermann, Bad Nauheim, Germany)."}, "[3]": {"system": "IL6 production in whole blood of patients with cachexia", "assay": "Milenia whole blood assay, IL6 production (in vitro addition of UDCA / BPi)", "type": "cell-based, human", "source_text": "as §4\n[…] In the supernatant, we assessed concentrations of TNF and IL-6 using the semiautomated Immulite system (DPC-Biermann, Bad Nauheim, Germany)."}, "[4]": {"system": "whole blood IL6 production", "assay": "Whole blood IL6 production after therapeutic application of UDCA", "type": "in vivo, human", "conditions": "patient 4; after 2 days of UDCA treatment, 3 times 250 mg daily", "procedure": "as §1, §2, §3"}, "[5]": {"system": "monocyte generated cytokine production in response to LPS", "conditions": "in vitro, in the concentrations used; cited from earlier work"}, "[6]": {"system": "LPS-induced TNF-α release", "assay": "LPS-induced TNF-α release with lipoproteins / LBP (FIG. 4 to 7)", "type": "cell-based", "conditions": "addition of LBP to a lipoprotein containing serum (FIG. 7)"}, "[7]": {"conditions": "100 ug/ml UDCA, whole blood of patients with cachexia due to liver cirrhosis, 4 hours at 37° C"}, "[8]": {"conditions": "1 mg/ml UDCA, whole blood of patients with cachexia due to liver cirrhosis diluted 1:10, 4 hours at 37° C, on average"}, "[9]": {"conditions": "BPi 1 ug/ml, in 6 of 8 experiments, or towards non-detectability, 2 cases stable, p<0.05"}, "[10]": {"conditions": "BPi 1 ug/ml, whole blood of patients with cachexia due to liver cirrhosis, no LPS"}},
  "data": [
    {"molecule": "C[C@H](CCC(=O)O)[C@H]1CC[C@H]2[C@@H]3[C@@H](O)C[C@@H]4C[C@H](O)CC[C@]4(C)[C@H]3CC[C@]12C", "note": "[UDCA, ursodeoxycholic acid]", "values": [
      {"measurement": "LPS-stimulated TNF production lowered", "setting": "[1]", "result": 43.5, "unit": "%"},
      {"measurement": "reduction of LPS-stimulated TNF production", "setting": "[2]; [7]", "result": 42, "unit": "%"},
      {"measurement": "reduction of LPS-stimulated TNF production", "setting": "[2]; [8]", "result": "> 99", "unit": "%"},
      {"measurement": "reduction of LPS-stimulated IL6 production", "setting": "[3]; [7]", "result": 13, "unit": "%"},
      {"measurement": "reduction of LPS-stimulated IL6 production", "setting": "[3]; [8]", "result": 97, "unit": "%"},
      {"measurement": "LPS-stimulated IL6 production lowered", "setting": "[4]", "result": 39.6, "unit": "%"}
    ]},
    {"molecule": "C[C@H](CCC(=O)O)[C@H]1CC[C@H]2[C@@H]3[C@H](O)C[C@@H]4C[C@H](O)CC[C@]4(C)[C@H]3CC[C@]12C", "note": "[chenodeoxycholic acid]", "values": [
      {"measurement": "effect on monocyte generated cytokine production in response to LPS", "setting": "[5]", "result": "less effective"}
    ]},
    {"molecule": "LBP: LPS binding protein (protein, UniProt P18428 26-481, looked up) Lipopolysaccharide-binding …: ANPGLVARITDKGLQYAAQEGLLALQSELLRITLPDFTGDLRIPHVGRGRYEFHSLNIHSCELLHSALRPVPGQGLSLSISDSSIRVQGRWKVRKSFFKLQGSFDVSVKGISISVNLLLGSESSGRPTVTASSCSSDIADVEVDMSGDLGWLLNLFHNQIESKFQKVLESRICEMIQKSVSSDLQPYLQTLPVTTEIDSFADIDYSLVEAPRATAQMLEVMFKGEIFHRNHRSPVTLLAAVMSLPEEHNKMVYFAISDYVFNTASLVYHEEGYLNFSITDDMIPPDSNIRLTTKSFRPFVPRLARLYPNMNLELQGSVPSAPLLNFSPGNLSVDPYMEIDAFVLLPSSSKEPVFRLSVATNVSATLTFNTSKITGFLKPGKVKVELKESKVGLFNAELLEALLNYYILNTFYPKFNDKLAEGFPLPLLKRVQLYDLGLQIHKDFLFLGANVQYMRV", "values": [
      {"measurement": "LPS-mediated TNF-α production", "setting": "[6]", "result": "reduced"}
    ]},
    {"molecule": "BPi: BPi, agent tested to inhibit LPS-mediated TNF production in whole blood; not spelled out in the text (protein, UniProt P17213 32-487, looked up) Bactericidal …: VNPGVVVRISQKGLDYASQQGTAALQKELKRIKIPDYSDSFKIKHLGKGHYSFYSMDIREFQLPSSQISMVPNVGLKFSISNANIKISGKWKAQKRFLKMSGNFDLSIEGMSISADLKLGSNPTSGKPTITCSSCSSHINSVHVHISKSKVGWLIQLFHKKIESALRNKMNSQVCEKVTNSVSSELQPYFQTLPVMTKIDSVAGINYGLVAPPATTAETLDVQMKGEFYSENHHNPPPFAPPVMEFPAAHDRMVYLGLSDYFFNTAGLVYQEAGVLKMTLRDDMIPKESKFRLTTKFFGTFLPEVAKKFPNMKIQIHVSASTPPHLSVQPTGLTFYPAVDVQAFAVLPNSSLASLFLIGMHTTGSMEVSAESNRLVGELKLDRLLLELKHSNIGPFPVELLQDIMNYIVPILVLPRVNEKLQKGFPLPTPARVQLYNVVLQPHQNFLLFGADVVYK", "values": [
      {"measurement": "lowering of spontaneous TNF levels", "setting": "[2]; [9]", "result": "at least 5 pg/mi"},
      {"measurement": "spontaneous production of TNF", "setting": "[2]; [10]", "result": "reduced significantly"},
      {"measurement": "lowering of spontaneous IL6 levels", "setting": "[3]; [9]", "result": "at least 5 pg/mi"},
      {"measurement": "spontaneous production of IL6", "setting": "[3]; [10]", "result": "reduced significantly"}
    ]}
  ]
}
